Experimental data: US8211881B2, “Cholesterol-mimetic pyrene probes” (Centre National de la Recherche Scientifique, priority 2005, dated 2012)

What was measured:
[1] = target: T1, GPCR μ with opioids (hMOP) (Homo sapiens, UniProt P35372); assay: Fluorescence spectra of SH-SY5Y cells overexpressing hMOP, marked with pyrene-ketone-cholesterol (4), before and after agonist addition (FIG. 2); format: cell-based; conditions: agonist under saturation conditions, probe of formula (4)
T1 construct: expressed in transfected cells; host or cells: SH-SY5Y neuroblastoma cells
T1 sequence (P35372 whole entry): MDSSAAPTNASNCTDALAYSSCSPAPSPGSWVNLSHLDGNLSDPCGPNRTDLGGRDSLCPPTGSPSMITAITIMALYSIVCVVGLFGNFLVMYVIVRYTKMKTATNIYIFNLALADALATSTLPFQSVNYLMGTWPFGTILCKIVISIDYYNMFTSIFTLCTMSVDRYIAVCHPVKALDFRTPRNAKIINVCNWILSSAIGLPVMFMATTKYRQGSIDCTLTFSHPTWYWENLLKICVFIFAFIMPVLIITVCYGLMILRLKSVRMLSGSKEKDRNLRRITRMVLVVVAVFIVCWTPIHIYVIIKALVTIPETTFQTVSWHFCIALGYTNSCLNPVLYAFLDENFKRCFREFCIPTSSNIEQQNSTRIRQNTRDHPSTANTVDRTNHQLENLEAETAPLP
Procedure: Confluence cells immobilised on a 22 by 22 mm silica slice are placed in a 35 mm diameter Petri dish and covered by 1.2 ml of a 0.22 μm-filtered solution and composed of 15 ml of base medium (DMEM with 1% foetal calf serum) plus 1 ml solution of methyl-β-cyclodextrins loaded with Pyrene cholesterol (4) or (7). The mixture is left to incubate at 37° C. for between 1 and 15 mn according to the desired marking rate. Then the medium is replaced 4 times with 1.2 ml of PBS Ca++Mg++.
The images are produced with a Zeiss axioplanll microscope using a 63× oil-immersion objective (Plan-Neofluoar, NA=1.4) and a CCD camera (C2400-75i Hamamatsu) equipped with the Argus 20 system (Hamamatsu) which removes the background noise directly on the preparation corresponding to the following mounting: after the slice carrying the marked cells has been turned upside-down on a slide provided with cross-pieces, a chamber the volume of which is close to 120 μl is thus produced and filled with DMEM medium . […]
The fluorescence spectra are produced on these mountings on an AMINCO 500 spectrofluorimeter. The excitation wavelength is 335 nm bp 5 nm, the emission spectrum being recorded after 370 nm bp 4 nm and with a resolution of 0.25 nm per point.

[2] = in DMPC; cited from earlier work

| melting point [°C] | Compound | also measured |
| --- | --- | --- |
| 84 | C=C(CCc1ccc2ccc3cccc4ccc1c2c34)[C@H]1CC[C@H]2[C@@H]3CC=C4C[C@@H](O)CC[C@]4(C)[C@H]3CC[C@]12C |  |
|  | C[C@@H](NC(=O)[C@@H](N)Cc1ccc(O)cc1)C(=O)NCC(=O)N(C)[C@@H](Cc1ccccc1)C(=O)NCCO [DAMGO] | change of membrane polarity (band I1 intensity, I3 and I4 unchanged) after addition of the agonist [1]: reduction in the membrane polarity |
|  | CC(C)CCC[C@@H](C)[C@H]1CC[C@H]2[C@@H]3CC=C4C[C@@H](O)CC[C@]4(C)[C@H]3CC[C@]12C [cholesterol] | solubility in membrane lipids [2]: 68% |
| 199 | C[C@]12CC[C@H]3[C@@H](CC=C4C[C@@H](O)CC[C@@]43C)[C@@H]1CC[C@@H]2C(=O)CCc1ccc2ccc3cccc4ccc1c2c34 [pyrene-ketone-cholesterol, 3β-hydroxy-pregn-5-ene-21-(1-methylpyrenyl)-20-one] |  |
